Test results from patent US9833466B2, “Treatment of leukemia with histone deacetylase inhibitors” (Acetylon Pharmaceuticals Inc., priority 2014, dated 2017).
“Also recorded” adds a separate entry of the source.

Key:
HDAC6 = molecular target: T1, HDAC6 (Homo sapiens, UniProt Q9UBN7); assay: HDAC enzyme assays (selectivity for HDAC6); assay type: biochemical
T1 sequence (Q9UBN7 1-1215): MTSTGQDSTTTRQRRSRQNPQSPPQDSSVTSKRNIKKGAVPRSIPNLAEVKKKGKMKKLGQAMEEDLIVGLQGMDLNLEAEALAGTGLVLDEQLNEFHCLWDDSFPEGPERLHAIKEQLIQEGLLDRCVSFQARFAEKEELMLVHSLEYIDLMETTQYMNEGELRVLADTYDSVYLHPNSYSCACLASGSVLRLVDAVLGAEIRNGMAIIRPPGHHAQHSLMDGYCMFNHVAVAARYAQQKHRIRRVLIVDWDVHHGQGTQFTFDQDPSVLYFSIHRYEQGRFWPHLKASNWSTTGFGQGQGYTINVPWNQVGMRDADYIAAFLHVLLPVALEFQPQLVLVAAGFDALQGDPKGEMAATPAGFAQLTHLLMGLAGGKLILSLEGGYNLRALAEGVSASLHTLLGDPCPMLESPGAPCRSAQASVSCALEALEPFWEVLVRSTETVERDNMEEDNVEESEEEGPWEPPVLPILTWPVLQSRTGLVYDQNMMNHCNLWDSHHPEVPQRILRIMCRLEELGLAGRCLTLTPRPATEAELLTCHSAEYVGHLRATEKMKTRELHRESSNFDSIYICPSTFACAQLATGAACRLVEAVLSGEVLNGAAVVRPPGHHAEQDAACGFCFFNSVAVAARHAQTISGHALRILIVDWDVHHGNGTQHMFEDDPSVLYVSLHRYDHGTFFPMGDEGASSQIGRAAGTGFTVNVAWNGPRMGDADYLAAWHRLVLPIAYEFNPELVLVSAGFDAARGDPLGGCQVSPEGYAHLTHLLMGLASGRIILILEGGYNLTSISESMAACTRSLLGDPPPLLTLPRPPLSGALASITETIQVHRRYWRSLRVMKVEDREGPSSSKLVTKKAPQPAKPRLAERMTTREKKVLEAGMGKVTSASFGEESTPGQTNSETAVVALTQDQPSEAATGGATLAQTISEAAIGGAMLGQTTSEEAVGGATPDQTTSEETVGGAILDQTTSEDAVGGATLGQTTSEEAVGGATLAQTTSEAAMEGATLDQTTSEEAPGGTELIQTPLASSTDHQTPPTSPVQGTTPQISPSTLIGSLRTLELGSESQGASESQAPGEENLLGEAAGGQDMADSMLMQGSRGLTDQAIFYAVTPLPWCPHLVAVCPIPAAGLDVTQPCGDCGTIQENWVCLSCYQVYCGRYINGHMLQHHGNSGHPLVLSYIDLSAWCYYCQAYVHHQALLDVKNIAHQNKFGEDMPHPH
Method: Compounds for testing are diluted in DMSO to 50 fold the final concentration and a ten point three fold dilution series is made. The compounds are diluted in assay buffer (50 mM HEPES, pH 7.4, 100 mM Kill, 0.001% Tween-20, 0.05% BASE, 20 μM TEC) to 6 fold their final concentration. The HDAC enzymes (purchased from BPS Biosciences) are diluted to 1.5 fold their final concentration in assay buffer. The dipeptide substrate and trypsin at 0.05 μM final concentration are diluted in assay buffer at 6 fold their final concentration. The final enzyme concentrations to use in these assays are 3.3 ng/ml (HDAC1), 0.2 ng/ml (HDAC2), 0.08 ng/ml (HDAC3) and 2 ng/ml (HDAC6). The final substrate concentrations to use are 16 μM (HDAC1), 10 μM (HDAC2), 17 μM (HDAC3) and 14 μM (HDAC6). Five μ1 of compound and 20 μl of enzyme are added to wells of a black, opaque 384 well plate in duplicate. Enzyme and compound are incubated together at room temperature for 10 min. Five μ1 of substrate is added to each well, the plate is shaken for 60 seconds and placed into a Victor 2 microliter plate reader. The development of fluorescence is monitored for 60 min. and the linear rate of the reaction is calculated. The IC50 is determined using Graph Pad Prism by a four parameter curve fit.

AML1/ETO fusion protein = AML1/ETO fusion protein Western blot in Kasumi-1 cells; assay type: cell-based; conditions: 24 hours
Method: One type of AML has a signature chromosome translocation t(8:21) and therefore expression of a unique fusion protein AML1/ETO. […] In this study, Kasumi-1 cells were exposed to different concentrations of the HDAC inhibitor Compound A, or another HDAC1/2/6 selective inhibitor Compound G (data not shown), for 24 hours. The whole cell lysates were separated by SDS-PAGE (SDS-polyacrylamide gel electrophoresis) and transferred to a membrane (Western blot). The AML1/ETO fusion protein was detected on the membrane using an AML1 specific antibody.

[1] = test system: bone marrow samples derived from AML patients; assay: Primary AML sample colony formation assay; assay type: cell-based; conditions: Homo sapiens, 336 h, read-out: median IC50, colony formation
Method: (A) 6 bone marrow samples derived from AML patients were cultured in methylcellulose-based medium and treated with increasing concentrations of Compound A, Compound J and azacitidine for 14 days when the colonies reach reasonable size. IC50 values for each drug are plotted. […] IC50 values were plotted for each patient sample.

multiple myeloma = conditions: preclinical models of multiple myeloma; cited from earlier work
HL-60 cells = assay: HL-60 cell viability, combination with azacitidine (cell titer glo, CalcuSyn CI); assay type: cell-based; conditions: 72 hr, CI less than 1 = synergistic
Method: HL-60 cells were treated with increasing doses of azacitidine with Compound E (FIG. 11A) or with Compound A (FIG. 11B) or with Compound H (FIG. 11C) or with Compound C (FIG. 11D), and cell viability was assessed at 72 hr by cell titer glo assay. The combination index (CI) and relative fraction affected (Fa) was determined at each dose level using CalcuSyn software. […] Significant enhancement of azacitidine activity is observed in combination with HDAC1/2 inhibition.

GATA2 = GATA2 expression in MV4-11 AML cell line; assay type: cell-based; conditions: 48 h and 72 h
Method: FIG. 16. […] (A-B) MV4-11 cells were plated at 2×10^5 cells/ml at indicated doses for 48 h and 72 h. RNA was prepared and analyzed for GATA2 and GAPDH as internal control.

O=C(CCCCCCNC(=O)c1cnc(N(c2ccccc2)c2ccccc2Cl)nc1)NO [Compound B, 2-((2-chlorophenyl)(phenyl)amino)-N-(7-(hydroxyamino)-7-oxoheptyl)pyrimidine-5-carboxamide]
selective for HDAC6 (HDAC6): about 10 times

O=C(CCCCCCNC(=O)c1cnc(N(c2ccccc2)c2ccccc2)nc1)NO [Compound A, 2-(diphenylamino)-N-(7-(hydroxyamino)-7-oxoheptyl)pyrimidine-5-carboxamide]
amount of AML1/ETO fusion protein (AML1/ETO fusion protein): decrease the amount of this fusion protein in a concentration dependent manner
IC50 [1]: 9.76 µM
synergy with bortezomib and immunomodulatory agents (multiple myeloma): synergizes with bortezomib

Nc1ccc(-c2cccs2)cc1NC(=O)c1ccc2c(c1)cc(C1CC1)n2CCN1CCOCC1 [Compound E, N-(2-amino-5-(thiophen-2-yl)phenyl)-2-cyclopropyl-1-(2-morpholinoethyl)-1H-indole-5-carboxamide]
synergistic interaction with azacitidine on cell viability (CI) (HL-60 cells): strongest synergistic interaction
GATA2 expression (GATA2; combination of azacitidine and Compound E): further induced GATA2 expression; also recorded: synergistically induce GATA2 expression
GATA2 level (GATA2; single agent at 1 uM): induced GATA2 level
